Reference: patent US20230212549A1, “COMPOUNDS COMPRISING A […] LIGAND AND USE THEREOF” (priority 2021, published 2023)
Numbered stars: 1 amine (or outer) side, 2 acyl side, 3 side chain; on linkers, the order of the positions; unused ones are H or OH. Bridge positions count the residues as written; N and C are the ends. Square brackets hold non-standard residues; d marks the D form. Peptide text beside a SMILES is read from it. * marks the point of attachment. ξ: configuration not given here. X7 = O=C(CCP(=O)(O)CN1CCN(CP(=O)(O)CO)CCN(CP(=O)(O)CO)CC1)NCCSCc1cc(C[*:1])cc(C[*:2])c1; X11 = O=C(O)CN1CCN(CC(=O)O)CCN(C(CCC(=O)NCCSCc2cc(C[*:1])cc(C[*:2])c2)C(=O)O)CC1; X10 = O=C(O)CN1CCN(CC(=O)O)CCN(C(CCC(=O)NCCCOCCOCCOCCCN*)C(=O)O)CC1; mXylylene = c1cc(C[*:1])cc(C[*:2])c1; PEG6 = NCCOCCOCCOCCOCCOCCOCCC(=O)O; X29 = O=C(CN1CCN([*:1])CC1)[*:2]; Suc = O=C(CCC(=O)[*:2])[*:1]; Nle = CCCC[C@H](N)C(=O)O; X2 = NCCNCC(CNCCN)C(=O)*; Hexanoyl = CCCCCC(=O)*; ξC = NC(CS)C(=O)O; βAla = NCCC(=O)O

Assays:
[1] = molecular target: T1, FAP-expressing human WI-38 fibroblasts (Homo sapiens, UniProt Q12884); test: Competitive FACS binding assay
T1 construct: FAP-expressing human WI-38 fibroblasts (ECACC) were cultured in EMEM; host or cells: WI-38 human fibroblasts
T1 sequence (Q12884 whole entry): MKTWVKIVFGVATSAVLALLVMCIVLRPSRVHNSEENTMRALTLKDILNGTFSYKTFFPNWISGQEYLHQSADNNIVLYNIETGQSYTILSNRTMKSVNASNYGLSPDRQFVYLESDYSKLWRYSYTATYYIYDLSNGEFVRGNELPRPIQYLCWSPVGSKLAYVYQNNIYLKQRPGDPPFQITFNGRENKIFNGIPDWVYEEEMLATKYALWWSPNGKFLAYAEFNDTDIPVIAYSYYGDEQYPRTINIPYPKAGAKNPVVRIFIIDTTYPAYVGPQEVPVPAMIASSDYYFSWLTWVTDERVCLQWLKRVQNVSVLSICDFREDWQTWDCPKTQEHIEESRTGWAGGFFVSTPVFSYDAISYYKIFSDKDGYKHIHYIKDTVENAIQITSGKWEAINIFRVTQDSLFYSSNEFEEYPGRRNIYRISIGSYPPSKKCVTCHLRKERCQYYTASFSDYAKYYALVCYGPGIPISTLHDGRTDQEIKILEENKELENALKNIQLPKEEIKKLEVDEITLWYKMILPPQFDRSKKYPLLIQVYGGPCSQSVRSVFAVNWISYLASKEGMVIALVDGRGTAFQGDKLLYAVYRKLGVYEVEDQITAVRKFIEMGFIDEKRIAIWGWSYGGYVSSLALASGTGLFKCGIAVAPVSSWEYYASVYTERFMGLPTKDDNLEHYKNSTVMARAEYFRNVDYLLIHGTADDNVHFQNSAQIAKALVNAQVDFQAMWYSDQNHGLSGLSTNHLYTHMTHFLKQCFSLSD
Protocol: Cells were analyzed in an Attune NxT flow cytometer. […] […].
Cells were analyzed in an Attune NxT flow cytometer. […]

Human recombinant FAP = Human recombinant FAP (Homo sapiens, UniProt Q12884); test: FRET-based FAP protease activity assay; assay type: biochemical; parameters: purchased R&D systems 3715-SE
Chain of Human recombinant FAP (Q12884 whole entry): as above

in vivo = conditions: female, athymic nude, mouse, iv
[2] = pIC50 Category (activity), Recombinant human FAP
[3] = FAP-expressing human WI-38 fibroblasts

CCCCNC(=O)N[C@H]1CSCc2cccc(c2)CSC[C@@H](C(=O)N[C@@H](CCCCNC(=O)C(CNCCN)CNCCN)CC(=O)O)NC(=O)[C@H](Cc2ccccc2)NC(=O)[C@H](CCC(N)=O)NC(=O)[C@H]([C@@H](C)O)NC(=O)[C@@H]2CCCN2C(=O)[C@@H]2CCCN2C1=O [3BP-4589, nBu-CAyl-[Cys(3MeBn)-Pro-Pro-Thr-Gln-Phe-Cys]-Bhk(N4Ac)—OH]
IC50 [1]: < 10 nM | IC50 (Human recombinant FAP; pIC50 Category (Activity), FRET-peptide substrate, 37° C.): < 10 nM

CCCCCC(=O)N[C@H]1CSCc2cc(CSCCNC(=O)CCC(C(=O)O)N3CCN(CC(=O)O)CCN(CC(=O)O)CC3)cc(c2)CSCC(C(=O)O)NC(=O)[C@H](Cc2ccccc2)NC(=O)[C@H](CCC(=O)O)NC(=O)[C@H]([C@@H](C)O)NC(=O)[C@@H]2CCCN2C(=O)[C@@H]2CCCN2C1=O (stereo partly drawn) [3BP-4695, Hex-[Cys(tMeBn(NODAGA-AET))-Pro-Pro-Thr-Glu-Phe-Cys]-OH] (Hexanoyl-CPPTEF[ξC]-OH; linker 1-7 via X11)
IC50 [1]: 10 to 79.4 nM | IC50 (Human recombinant FAP; [2]): 10 to 79.4 nM

CCCCCC(=O)N[C@H]1CSCc2cc(CSCCNC(=O)COCCOCCNC(=O)CCC(C(=O)O)N3CCN(CC(=O)O)CCN(CC(=O)O)CC3)cc(c2)CSCC(C(N)=O)NC(=O)[C@H](Cc2ccccc2)NC(=O)[C@H](CCC(N)=O)NC(=O)[C@H]([C@@H](C)O)NC(=O)[C@@H]2CCCN2C(=O)[C@@H]2CCCN2C1=O (stereo partly drawn) [3BP-4708, Hex-[Cys(tMeBn(NODAGA-O2Oc-AET))-Pro-Pro-Thr-Gln-Phe-Cys]-NH2]
IC50 [1]: < 10 nM | IC50 (Human recombinant FAP; [2]): < 10 nM

CCCC[C@H](NC(=O)CCC(=O)NCCCOCCOCCOCCCNC(=O)CCC(C(=O)O)N1CCN(CC(=O)O)CCN(CC(=O)O)CC1)C(=O)N[C@H]1CSCc2cccc(c2)CSCC(C(=O)O)NC(=O)[C@H](Cc2ccccc2)NC(=O)[C@H](CCC(N)=O)NC(=O)[C@H]([C@@H](C)O)NC(=O)[C@@H]2CCCN2C(=O)[C@@H]2CCCN2C1=O (stereo partly drawn) [3BP-4714, NODAGA-Ttds-Nle-[Cys(3MeBn)-Pro-Pro-Thr-Glu-Phe-Cys]-OH]
IC50 [1]: 10 to 79.4 nM | tissue uptake at 0.25 h (in vivo; blood pool surrogate (BPS)): 1.52 %ID/g | tissue uptake at 1 h (in vivo; blood pool surrogate (BPS)): 0.65 %ID/g | tissue uptake at 3 h (in vivo; blood pool surrogate (BPS)): 0.32 %ID/g | tissue uptake at 0.25 h (in vivo; kidneys): 5 %ID/g | tissue uptake at 1 h (in vivo; kidneys): 3.82 %ID/g | tissue uptake at 3 h (in vivo; kidneys): 3.83 %ID/g | tissue uptake at 0.25 h (in vivo; tumor): 5.15 %ID/g | tissue uptake at 1 h (in vivo; tumor): 5.44 %ID/g | tissue uptake at 3 h (in vivo; tumor): 5.49 %ID/g | IC50 (Human recombinant FAP; [2]): 10 to 79.4 nM

CCCCNC(=O)N[C@H]1CSCc2cc(CSCCNC(=O)CCC(C(=O)O)N3CCN(CC(=O)O)CCN(CC(=O)O)CC3)cc(c2)CSCC(C(=O)O)NC(=O)[C@H](Cc2ccccc2)NC(=O)[C@H](CCC(N)=O)NC(=O)[C@H]([C@@H](C)O)NC(=O)[C@@H]2CCCN2C(=O)[C@@H]2CCCN2C1=O (stereo partly drawn) [3BP-4723, nBu-CAyl-[Cys(tMeBn(NODAGA-AET))-Pro-Pro-Thr-Gln-Phe-Cys]-OH]
IC50 [1]: < 10 nM | IC50 (Human recombinant FAP; [2]): < 10 nM

CCCCCC(=O)N[C@H]1CSCc2cc(CSCCNC(=O)CCP(=O)(O)CN3CCN(CP(=O)(O)CO)CCN(CP(=O)(O)CO)CC3)cc(c2)CSCC(C(N)=O)NC(=O)[C@H](Cc2ccccc2)NC(=O)[C@H](CCC(N)=O)NC(=O)[C@H]([C@@H](C)O)NC(=O)[C@@H]2CCCN2C(=O)[C@@H]2CCCN2C1=O (stereo partly drawn) [3BP-4729, Hex-[Cys(tMeBn(NOPO-AET))-Pro-Pro-Thr-Gln-Phe-Cys]-NH2]
IC50 [1]: < 10 nM | IC50 (Human recombinant FAP; [2]): < 10 nM

CCCC[C@H](NC(=O)CCC(=O)NCCCOCCOCCOCCCNC(=O)CCC(C(=O)O)N1CCN(CC(=O)O)CCN(CC(=O)O)CC1)C(=O)N[C@H]1CSCc2cccc(c2)CSCC(C(N)=O)NC(=O)[C@H](Cc2ccccc2)NC(=O)[C@H](CCC(=O)O)NC(=O)[C@H]([C@@H](C)O)NC(=O)[C@@H]2CCCN2C(=O)[C@@H]2CCCN2C1=O (stereo partly drawn) [3BP-4743, NODAGA-Ttds-Nle-[Cys(3MeBn)-Pro-Pro-Thr-Glu-Phe-Cys]-NH2] ({X10-Suc}-[Nle]CPPTEF[ξC]-NH2; linker 2-8 via mXylylene)
IC50 [1]: 10 to 79.4 nM | IC50 (Human recombinant FAP; [2]): 10 to 79.4 nM

CCCC[C@H](NC(=O)CCNC(=O)CCOCCOCCOCCOCCOCCOCCNC(=O)C(CNCCN)CNCCN)C(=O)N[C@H]1CSCc2cccc(c2)CSC[C@@H](C(=O)O)NC(=O)[C@H](Cc2ccccc2)NC(=O)[C@H](CCC(=O)O)NC(=O)[C@H]([C@@H](C)O)NC(=O)[C@@H]2CCCN2C(=O)[C@@H]2CCCN2C1=O [3BP-4779, N4Ac-PEG6-Bal-Nle-[C(3MeBn)-PPTEFC]-OH] ({X2-PEG6-βAla}-[Nle]CPPTEFC-OH; linker 2-8 via mXylylene)
IC50 [1]: 100 to 794 nM | IC50 (Human recombinant FAP; [2]): > 1000 nM

CCCC[C@H](NC(=O)CCOCCOCCOCCOCCOCCOCCNC(=O)CN1CCN(C(=O)C(CNCCN)CNCCN)CC1)C(=O)N[C@H]1CSCc2cccc(c2)CSC[C@@H](C(=O)O)NC(=O)[C@H](Cc2ccccc2)NC(=O)[C@H](CCC(=O)O)NC(=O)[C@H]([C@@H](C)O)NC(=O)[C@@H]2CCCN2C(=O)[C@@H]2CCCN2C1=O [3BP-4781, N4Ac-PPAc-PEG6-Nle-[Cys(3MeBn)-Pro-Pro-Thr-Glu-Phe-Cys]-OH] (X2-[X29][PEG6][Nle]CPPTEFC-OH; linker 4-10 via mXylylene)
IC50 [1]: 10 to 79.4 nM | IC50 (Human recombinant FAP; [2]): 10 to 79.4 nM

CCCC[C@H](NC(=O)CCNC(=O)CN1CCN(C(=O)C(CNCCN)CNCCN)CC1)C(=O)N[C@H]1CSCc2cccc(c2)CSC[C@@H](C(=O)O)NC(=O)[C@H](Cc2ccccc2)NC(=O)[C@H](CCC(=O)O)NC(=O)[C@H]([C@@H](C)O)NC(=O)[C@@H]2CCCN2C(=O)[C@@H]2CCCN2C1=O [3BP-4783, N4Ac-PPAc-Bal--Nle-[C(3MeBn)-PPTEFC]-OH] (X2-[X29][βAla][Nle]CPPTEFC-OH; linker 4-10 via mXylylene)
IC50 [1]: > 1000 nM | IC50 (Human recombinant FAP; [2]): > 1000 nM

CCCCCC(=O)N[C@H]1CSCc2cc(CSCCNC(=O)CCP(=O)(O)CN3CCN(CP(=O)(O)CO)CCN(CP(=O)(O)CO)CC3)cc(c2)CSC[C@@H](C(=O)O)NC(=O)[C@H](Cc2ccccc2)NC(=O)[C@H](CCC(=O)O)NC(=O)[C@H]([C@@H](C)O)NC(=O)[C@@H]2CCCN2C(=O)[C@@H]2CCCN2C1=O [3BP-4816, Hex-[C(tMeBn(GaNOPO-AET))-PPTEFC]-OH] (Hexanoyl-CPPTEFC-OH; linker 1-7 via X7)
pIC50 Category (FACS) [1, 3]: B (category B for pIC50 values between 7.1 and 8.0) | pIC50 Category (activity) (Human recombinant FAP; Recombinant human FAP): B (category B for pIC50 values between 7.1 and 8.0)

CCCCCC(=O)N[C@H]1CSCc2cc(CSCCNC(=O)CCP(=O)(O)CN3CCN(CP(=O)(O)CO)CCN(CP(=O)(O)CO)CC3)cc(c2)CSCC(C(=O)O)NC(=O)[C@H](Cc2ccccc2)NC(=O)[C@H](CCC(=O)O)NC(=O)[C@H]([C@@H](C)O)NC(=O)[C@@H]2CCCN2C(=O)[C@@H]2CCCN2C1=O (stereo partly drawn) [3BP-4818, Hex-[Cys(tMeBn(NOPO-AET))-Pro-Pro-Thr-Glu-Phe-Cys]-OH] (Hexanoyl-CPPTEF[ξC]-OH; linker 1-7 via X7)
IC50 [1]: 10 to 79.4 nM | IC50 (Human recombinant FAP; [2]): 10 to 79.4 nM

CCCCNC(=O)N[C@H]1CSCc2cc(CSCCNC(=O)CCP(=O)(O)CN3CCN(CP(=O)(O)CO)CCN(CP(=O)(O)CO)CC3)cc(c2)CSC[C@@H](C(=O)O)NC(=O)[C@H](Cc2ccccc2)NC(=O)[C@H](CCC(N)=O)NC(=O)[C@H]([C@@H](C)O)NC(=O)[C@@H]2CCCN2C(=O)[C@@H]2CCCN2C1=O [3BP-5260, nBu-CAyl-[C(tMeBn(GaNOPO-AET))-PPTQFC]-OH]
pIC50 Category (FACS) [1, 3]: A (pIC50 category A stands for pIC50 values >8.0) | pIC50 Category (activity) (Human recombinant FAP; Recombinant human FAP): A (pIC50 category A stands for pIC50 values >8.0)

CCCCCC(=O)N[C@H]1CSCc2cc(CSCCNC(=O)COc3ccc4nc3CN(CC(=O)O)CCN(CC(=O)O)CCN(CC(=O)O)C4)cc(c2)CSCC(C(=O)O)NC(=O)[C@H](Cc2ccccc2)NC(=O)[C@H](CCC(N)=O)NC(=O)[C@H]([C@@H](C)O)NC(=O)[C@@H]2CCCN2C(=O)[C@@H]2CCCN2C1=O (stereo partly drawn) [3BP-5273, Hex-[Cys(tMeBn(AcPCTA-AET))-Pro-Pro-Thr-Gln-Phe-Cys]-OH]
IC50 [1]: < 10 nM | IC50 (Human recombinant FAP; [2]): < 10 nM

CCCCCC(=O)N[C@H]1CSCc2cc(CSCCNC(=O)CN3CCN(CC(=O)O)CCN(CC(N)=O)CCN(CC(=O)O)CC3)cc(c2)CSCC(C(=O)O)NC(=O)[C@H](Cc2ccccc2)NC(=O)[C@H](CCC(N)=O)NC(=O)[C@H]([C@@H](C)O)NC(=O)[C@@H]2CCCN2C(=O)[C@@H]2CCCN2C1=O (stereo partly drawn) [3BP-5288, Hex-[Cys(tMeBn(LSC-AET))-Pro-Pro-Thr-Gln-Phe-Cys]-OH]
IC50 [1]: < 10 nM | IC50 (Human recombinant FAP; [2]): < 10 nM

Hex-[Cys(3MeBn)-Pro-Pro-Thr-Glu-Phe-Cys]-Asp-Omp-Arg-NH2 [3BP-3302]
pIC50 Category (FACS) ([1]; competition with 3 nM Cy5-labeled compound, WI-38 fibroblasts, 4° C., 1 hour): A (pIC50 category A stands for pIC50 values >8.0) | pIC50 Category (activity) (Human recombinant FAP; FRET-based FAP protease activity assay, recombinant human FAP, 37° C.): A (pIC50 category A stands for pIC50 values >8.0)
